The assay concerns the target T1, PI3Kδ (Homo sapiens, UniProt O00329).
T1 construct: endogenous in cells; host or cells: Raji cells
The assay is described as follows: Cell Based Assay for PI3Kδ (AKT phosphorylation, AlphaScreen SureFire, anti-IgM stimulated Raji cells). The conditions noted are these: compounds 1 h, anti-IgM (3 μg/mL) 30 min, phosphorylation of AKT, read-out: PI3Kδ inhibition IC50. As to the method: [formula] C) Cell Based Assay for PI3Kδ
Raji cells were maintained in RPMI-1640 (Sigma) supplemented with 10% fetal bovine serum (heat inactivated) (FBS, Sigma), 100 U penicillin/mL, and […] streptomycin and incubated at 37° C. and 5% CO2. Cells were centrifuged and resuspended in a complete medium. The required numbers of cells were transferred to a tissue culture flask containing medium without serum for 1 h at 37° C., 5% CO2. Following 1 h serum starvation, cells were centrifuged and resuspended in Hank's Balanced Salt Solution (HBSS, Sigma) and seeded in at a density of 1 million cells/well in 96-well clear bottom plates. The cells were treated with test compounds for 1 h at 37° C., 5% CO2. Cells were then stimulated with anti-IgM (3 μg/mL) for 30 min. After Stimulation, cells were lysed with 15 μL of 5× lysis buffer and the plate was shaken on an orbital plate shaker at approximately 300 rpm for 10 min. AlphaScreen® SureFire® Cell-based Assay (Perkin-Elmer, Waltham, Mass., USA) was performed to measure phosphorylation of AKT, in the cells according to the manufacturer's instructions. The luminescence was measured using an alpha technology-compatible plate reader BMG Labtech, Germany) at 520-620 nm. Percentage inhibition was calculated according to formula: […]
IC50 values were calculated by plotting % inhibition against the respective concentrations of test compounds using GraphPad Prism 5.
On the technique in general: Alpha assays give light when donor and acceptor beads are brought close together.
T1 sequence (O00329 whole entry): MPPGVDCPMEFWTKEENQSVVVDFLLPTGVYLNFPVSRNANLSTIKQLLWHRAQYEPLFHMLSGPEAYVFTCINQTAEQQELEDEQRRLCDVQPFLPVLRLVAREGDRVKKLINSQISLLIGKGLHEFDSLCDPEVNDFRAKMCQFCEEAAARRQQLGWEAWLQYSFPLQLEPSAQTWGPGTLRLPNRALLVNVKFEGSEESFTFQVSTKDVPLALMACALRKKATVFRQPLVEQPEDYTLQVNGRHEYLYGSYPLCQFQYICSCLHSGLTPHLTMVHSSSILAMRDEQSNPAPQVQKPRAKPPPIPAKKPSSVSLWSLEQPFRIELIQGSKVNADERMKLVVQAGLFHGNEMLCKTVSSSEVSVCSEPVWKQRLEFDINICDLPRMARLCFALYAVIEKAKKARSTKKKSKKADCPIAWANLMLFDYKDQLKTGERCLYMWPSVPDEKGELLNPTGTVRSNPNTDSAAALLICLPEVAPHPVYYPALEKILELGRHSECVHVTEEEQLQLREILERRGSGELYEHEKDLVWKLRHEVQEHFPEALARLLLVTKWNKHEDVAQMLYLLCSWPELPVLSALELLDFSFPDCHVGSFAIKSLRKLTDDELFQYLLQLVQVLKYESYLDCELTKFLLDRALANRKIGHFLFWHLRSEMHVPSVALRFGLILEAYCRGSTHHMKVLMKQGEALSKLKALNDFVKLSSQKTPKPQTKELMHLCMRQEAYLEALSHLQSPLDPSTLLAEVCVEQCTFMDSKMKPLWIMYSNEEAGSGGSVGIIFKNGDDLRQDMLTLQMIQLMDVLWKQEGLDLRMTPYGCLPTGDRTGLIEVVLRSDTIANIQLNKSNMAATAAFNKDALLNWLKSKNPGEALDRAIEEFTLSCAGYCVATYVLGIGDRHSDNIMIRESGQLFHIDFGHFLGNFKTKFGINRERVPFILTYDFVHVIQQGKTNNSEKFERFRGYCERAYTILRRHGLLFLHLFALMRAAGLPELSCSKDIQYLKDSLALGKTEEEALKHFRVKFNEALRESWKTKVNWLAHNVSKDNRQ
T1 sequence (P27986 whole entry partner): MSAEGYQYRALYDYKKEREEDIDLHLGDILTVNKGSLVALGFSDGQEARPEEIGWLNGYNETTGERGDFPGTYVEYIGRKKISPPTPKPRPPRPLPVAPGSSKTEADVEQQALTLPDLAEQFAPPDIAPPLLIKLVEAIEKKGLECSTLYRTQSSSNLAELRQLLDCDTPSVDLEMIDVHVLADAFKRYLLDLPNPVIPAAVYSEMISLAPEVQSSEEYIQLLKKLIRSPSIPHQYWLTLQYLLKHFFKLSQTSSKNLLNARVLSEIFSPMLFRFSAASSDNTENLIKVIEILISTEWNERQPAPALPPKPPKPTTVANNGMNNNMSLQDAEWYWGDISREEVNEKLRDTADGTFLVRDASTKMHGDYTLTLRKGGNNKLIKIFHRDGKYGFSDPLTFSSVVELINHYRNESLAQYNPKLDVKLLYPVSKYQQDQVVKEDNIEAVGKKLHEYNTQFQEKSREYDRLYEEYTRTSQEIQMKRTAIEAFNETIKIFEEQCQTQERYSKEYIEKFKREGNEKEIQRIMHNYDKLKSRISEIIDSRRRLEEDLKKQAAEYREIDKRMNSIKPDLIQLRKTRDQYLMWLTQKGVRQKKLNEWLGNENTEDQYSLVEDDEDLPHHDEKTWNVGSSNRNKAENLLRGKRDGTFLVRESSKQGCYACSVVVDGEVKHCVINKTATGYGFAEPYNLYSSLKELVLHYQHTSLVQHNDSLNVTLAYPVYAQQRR
The IC50 is the concentration needed to halve the response being measured. For the compound `C[C@H](Nc1ncnc(N)c1C#N)c1cc2ccccn2c(=O)c1-c1ccccc1` (single isomer, unassigned) [Compound 4a, 4-Amino-6-((1-(4-oxo-3-phenyl-4H-quinolizin-2-yl)ethyl)amino)pyrimidine-5-carbonitrile], the IC50 fell in the range of 0.011 to 0.05 µM. With `C[C@H](Nc1ncnc2[nH]cnc12)c1cc2ccccn2c(=O)c1-c1cccc(F)c1` (single isomer, unassigned) [Compound 5a, 2-(1-((9H-purin-6-yl)amino)ethyl)-3-(3-fluorophenyl)-4H-quinolizin-4-one], the IC50 lay in the range of 0.051 to 0.25 µM. As to `C[C@H](Nc1ncnc(N)c1C#N)c1cc2ccccn2c(=O)c1-c1cccc(F)c1` (single isomer, unassigned) [Compound 6a, 4-Amino-6-((1-(3-(3-fluorophenyl)-4-oxo-4H-quinolizin-2-yl)ethyl)amino)-pyrimidine-5-carbonitrile], the IC50 was 0.0001 to 0.01 µM. Regarding `Cc1cccc2cc([C@H](C)Nc3nc(N)nc4[nH]cnc34)c(-c3ccccc3)c(=O)n12` (single isomer, unassigned) [Compound 8a, 2-(1-((2-Amino-9H-purin-6-yl)amino)ethyl)-6-methyl-3-phenyl-4H-quinolizin-4-one], the IC50 fell in the range of 0.0001 to 0.01 µM. Consider `Cc1cccc2cc([C@H](C)Nc3nc(F)nc4[nH]cnc34)c(-c3ccccc3)c(=O)n12` (single isomer, unassigned) [Compound 9a, 2-(1-((2-Fluoro-9H-purin-6-yl)amino)ethyl)-6-methyl-3-phenyl-4H-quinolizin-4-one], for which the IC50 lay within 0.0001 to 0.01 µM. As for `Cc1cccc2cc([C@H](C)Nc3ncnc(N)c3C#N)c(-c3cccc(F)c3)c(=O)n12` (single isomer, unassigned) [Compound 10a, 4-Amino-6-((1-(3-(3-fluorophenyl)-6-methyl-4-oxo-4H-quinolizin-2-yl)ethyl)amino)pyrimidine-5-carbonitrile], the IC50 was 0.0001 to 0.01 µM. In the case of `Cc1cccc2cc([C@H](C)Nc3ncnc4[nH]cnc34)c(-c3cccc(F)c3)c(=O)n12` (single isomer, unassigned) [Compound 11a, 2-(1-((9H-purin-6-yl)amino)ethyl)-3-(3-fluorophenyl)-6-methyl-4H-quinolizin-4-one], the IC50 fell in the range of 0.0001 to 0.01 µM. Turning to `Cc1cccc2cc([C@H](C)Nc3nc(N)nc4[nH]cnc34)c(-c3cccc(F)c3)c(=O)n12` (single isomer, unassigned) [Compound 12a, 2-(1-((2-Amino-9H-purin-6-yl)amino)ethyl)-3-(3-fluorophenyl)-6-methyl-4H-quinolizin-4-one], the IC50 was 0.0001 to 0.01 µM.

Consider `C[C@H](Nc1ncnc(N)c1C#N)c1cc2ccc(F)cn2c(=O)c1-c1ccccc1` (single isomer, unassigned) [Compound 14a], for which the IC50 was in the range of 0.011 to 0.05 µM. Turning to `C[C@H](Nc1nc(N)nc2[nH]cnc12)c1cc2ccc(F)cn2c(=O)c1-c1cccc(F)c1` (single isomer, unassigned) [Compound 15a, 2-(1-((2-Amino-9H-purin-6-yl)amino)ethyl)-7-fluoro-3-(3-fluorophenyl)-4H-quinolizin-4-one], the IC50 was 0.011 to 0.05 µM. For `C[C@H](Nc1ncnc(N)c1C#N)c1cc2ccc(F)cn2c(=O)c1-c1cccc(F)c1` (single isomer, unassigned) [Compound 16a, 4-Amino-6-((1-(7-fluoro-3-(3-fluorophenyl)-4-oxo-4H-quinolizin-2-yl)ethyl)amino)pyrimidine-5-carbonitrile], the IC50 was in the range of 0.0001 to 0.01 µM. Regarding `Cc1cccc2cc([C@H](C)Nc3ncnc(N)c3C#N)c(-c3cc(F)cc(F)c3)c(=O)n12` (single isomer, unassigned) [Compound 17a, 4-Amino-6-((1-(3-(3,5-difluorophenyl)-6-methyl-4-oxo-4H-quinolizin-2-yl)ethyl)amino)pyrimidine-5-carbonitrile], the IC50 was 0.0001 to 0.01 µM. For the compound `Cc1cccc2cc([C@H](C)Nc3nc(N)nc4[nH]cnc34)c(-c3cc(F)cc(F)c3)c(=O)n12` (single isomer, unassigned) [Compound 18a, 2-(1-((2-amino-9H-purin-6-yl)amino)ethyl)-3-(3,5-difluorophenyl)-6-methyl-4H-quinolizin-4-one], the IC50 lay within 0.0001 to 0.01 µM.

For the origin of these results see patent US9944639B2, “Quinolizinone derivatives as PI3K inhibitors” (Lupin Limited, priority 2014, dated 2018).
